For test [1], the system named is A549. Description: Cytotoxicity against human A549 cells at < […] after 48 hrs by SRB assay. The format is functional, cell-based.
Another test deals with MDA-MB-231. In words: Cytotoxicity against human MDA-MB-231 cells at < […] after 48 hrs by SRB assay. Format: functional, cell-based. On the technique in general: Sulforhodamine B stains cellular protein and so reports cell mass.
Test [2] deals with HT-29. Description: Cytotoxicity against human HT-29 cells at < […] after 48 hrs by SRB assay. Format: functional, cell-based.
The subject of test [3] is HT-29. In words: Induction of apoptosis in human HT-29 cells at 41 ug/mL after 72 hrs using propidium iodide staining by flow cytometry. The format is functional. (In flow cytometry, cells or beads pass a laser one at a time.)
Test [4] concerns HT-29. In words: Induction cdc2 protein degradation in 300 uM protein synthesis inhibitor cycloheximide pretreated human HT-29 cells at 41 ug/mL after 6 to 36 hrs by Western blotting. Format: functional, cell-based.
In test [5] the test system is HT-29. Description: Induction of DNA damage signaling pathways in human HT-29 cells assessed as Chk1 phosphorylation at 41 ug/mL after 24 hrs by Western blotting. The format is functional, cell-based.
In test [6] the test system is HT-29. Description: Induction Wee1 protein degradation in 300 uM protein synthesis inhibitor cycloheximide pretreated human HT-29 cells at 41 ug/mL after 6 to 36 hrs by Western blotting. Format: functional, cell-based. A general note: A western blot detects proteins with antibodies after separation by electrophoresis.
Test [7] has as its system HT-29. In words: Reduction of phosphorylated cdc2 protein level in 0.2 ug/mL nocodazole pretreated human HT-29 cells at 41 ug/mL after 24 to 72 hrs by Western blotting. Format: functional, cell-based.
Test [8] concerns HT-29. In words: Induction of DNA damage signaling pathways in human HT-29 cells assessed as Chk2 phosphorylation at 41 ug/mL after 24 hrs by Western blotting. The format is functional, cell-based.
In test [9] the test system is HT-29. Description: Induction of DNA damage signaling pathways in human HT-29 cells assessed as p53 phosphorylation at 41 ug/mL after 24 hrs by Western blotting. The format is functional, cell-based.
Test [10] has as its system HT-29. Description: Cell cycle arrest in human HT-29 cells assessed as accumulation at G1 phase at 41 ug/mL after 72 hrs using propidium iodide staining by flow cytometry. Format: functional.
The subject of test [11] is HT-29. In words: Induction of apoptosis in 0.2 ug/mL nocodazole pretreated human HT-29 cells at 41 ug/mL after 72 hrs using propidium iodide staining by flow cytometry. The format is functional.
Test [12] concerns HT-29. Description: Cytotoxicity against human HT-29 cells assessed as reduction in cell viability at 41 ug/mL after 48 hrs by MTT assay. Format: functional. The note with it: HT-29, 48 h.
In test [13] the test system is HT-29. In words: Cell cycle arrest in human HT-29 cells assessed as accumulation at G2/M phase at 41 ug/mL after 24 hrs using propidium iodide staining by flow cytometry. The format is functional.
In test [14] the test system is HT-29. Description: Induction Wee1 protein degradation in human HT-29 cells at 41 ug/mL after 24 to 60 hrs by Western blotting. Format: functional, cell-based.
The subject of test [15] is HT-29. Description: Cell cycle arrest in human HT-29 cells assessed as accumulation at G1 phase at 41 ug/mL after 24 hrs using propidium iodide staining by flow cytometry. Format: functional.
The test system of test [16] is HT-29. In words: Cell cycle arrest in human HT-29 cells assessed as accumulation at S phase at 41 ug/mL after 24 hrs using propidium iodide staining by flow cytometry. The format is functional.
Test [17] concerns HT-29. Description: Induction cdc2 protein degradation in 10 uM proteasome inhibitor MG132 pretreated human HT-29 cells at 41 ug/mL after 6 to 36 hrs by Western blotting. Format: functional, cell-based.
Test [18] concerns HT-29. In words: Cell cycle arrest in 0.2 ug/mL nocodazole pretreated human HT-29 cells assessed as accumulation at G1 phase at 41 ug/mL after 72 hrs using propidium iodide staining by flow cytometry. Format: functional.
Test [19] has as its system HT-29. In words: Cell cycle arrest in human HT-29 cells assessed as accumulation at S phase at 41 ug/mL after 72 hrs using propidium iodide staining by flow cytometry. The format is functional.
Test [20] relates to HT-29. Description: Induction of increase in histone gamma-H2A.X levels in human HT-29 cells at 41 ug/mL after 24 to 60 hrs by Western blotting. Format: functional, cell-based.
Test [21] deals with HT-29. Description: Induction Cyclin B1 protein degradation in human HT-29 cells at 41 ug/mL after 24 to 60 hrs by Western blotting. The format is functional, cell-based.
Test [22] relates to HT-29. Description: Cell cycle arrest in 0.2 ug/mL nocodazole pretreated human HT-29 cells assessed as accumulation at S phase at 41 ug/mL after 72 hrs using propidium iodide staining by flow cytometry. The format is functional.
Test [23] concerns HT-29. Description: Cell cycle arrest in human HT-29 cells assessed as accumulation at G2/M phase at 41 ug/mL after 72 hrs using propidium iodide staining by flow cytometry. The format is functional.
Test [24] deals with HT-29. Description: Growth inhibition of human HT-29 cells. The format is functional.
In test [25] the test system is HT-29. Description: Induction Wee1 protein degradation in 10 uM proteasome inhibitor MG132 pretreated human HT-29 cells at 41 ug/mL after 6 to 36 hrs by Western blotting. Format: functional, cell-based.
Test [26] concerns HT-29. In words: Induction of apoptosis in human HT-29 cells at 41 ug/mL after 24 hrs using propidium iodide staining by flow cytometry. The format is functional.
In test [27] the test system is HT-29. Description: Cell cycle arrest in 0.2 ug/mL nocodazole pretreated human HT-29 cells assessed as accumulation at G2/M phase at 41 ug/mL after 72 hrs using propidium iodide staining by flow cytometry. Format: functional.
In test [28] the test system is HT-29. In words: Induction cdc2 protein degradation in human HT-29 cells at 41 ug/mL after 24 to 60 hrs by Western blotting. The format is functional, cell-based.
Test [29] has as its system A549. In words: Growth inhibition of human A549 cells. The format is functional.

This is an account of results in ChEMBL document CHEMBL1153080, “Cytotoxicity mechanisms of pyrazino[1,2-b]isoquinoline-4-ones and SAR studies” (2009).

Calls of active or inactive are those of the source. No cut-off for these calls is given here.

One may read the inhibition as the share of the control response that was lost under treatment.

On to `COc1c(C)c(OC)c(OC)c2c1C[C@H]1CN(C(=O)OC(C)C)C[C@@H](C#N)N1[C@H]2COC(=O)c1cccc2ccccc12` (relative stereo), for which the inhibition entry in the test on A549 [1], in the test on MDA-MB-231 and with HT-29 [2] was “inactive” each time.
As for `COc1c(C)c(OC)c(OC)c2c1C[C@H]1CN(C(=O)OC(C)C)CC(=O)N1[C@H]2CO[Si](c1ccccc1)(c1ccccc1)C(C)(C)C` (relative stereo), the inhibition entry with A549 [1], in the test with MDA-MB-231 and in the test with HT-29 [2] was “inactive” each time.
On to `COc1c(C)c(OC)c(OC)c2c1C[C@H]1CN(C(=O)OC(C)C)CC(=O)N1[C@H]2COCc1ccccc1`, for which the Activity in the test with HT-29 [3] is recorded as 29.9%; with HT-29 [10] it was 45.9%; in the test with HT-29 [11], 35.6%; with HT-29 [13], 16.4%; with HT-29 [15] it was 61.4%; in the test with HT-29 [16], 15.2%. In addition, the Activity came to 31% in the test with HT-29 [18]; 12.8% in the test with HT-29 [19]; 13.4% with HT-29 [22]; 10.4% in the test on HT-29 [23]; 4.3% in the test on HT-29 [26]; 18.3% in the test with HT-29 [27]. In addition, the result in the test on HT-29 [4], in the test with HT-29 [6], in the test on HT-29 [7] and with HT-29 [17] was Active. Moreover, the result in the test with HT-29 [5], in the test with HT-29 [8], in the test on HT-29 [9], with HT-29 [14], with HT-29 [20] and with HT-29 [21] was inactive. Also, the outcome with HT-29 [25] and in the test on HT-29 [28] was inactive. The inhibition entry in the test on A549 [1], in the test on MDA-MB-231 and with HT-29 [2] was “Active” each time. Besides, the inhibition at 41 µg/mL in the test with HT-29 [12] is 80%. Also, in the test on HT-29 [24], the GI is reported as 1.95 ×10⁻⁷ M.
On to `COc1c(C)c(OC)c(OC)c2c1C[C@H]1CN(C(=O)OC(C)C)C[C@@H](C#N)N1[C@H]2COC(=O)/C=C/c1ccccc1` (relative stereo), for which the inhibition result with A549 [1], in the test with MDA-MB-231 and in the test with HT-29 [2] was “inactive” each time.
`COc1c(C)c(OC)c(OC)c2c1C[C@H]1CN(C(=O)OC(C)C)C[C@H]3OC[C@@H]2N13` (relative stereo): the inhibition entry with A549 [1], in the test with MDA-MB-231 and in the test on HT-29 [2] was “inactive” each time.
Take `COc1c(C)c(OC)c(OC)c2c1C[C@H]1CN(C)CC(=O)N1[C@H]2CO` (relative stereo): the inhibition entry in the test with A549 [1], in the test with MDA-MB-231 and in the test with HT-29 [2] was “inactive” throughout.
In the case of `COc1c(C)c(OC)c(OC)c2c1C[C@H]1[C@@H](O)N(C(=O)OC(C)C)CC(=O)N1[C@H]2COCc1ccccc1`, the GI with A549 [29] is recorded as 5.68 ×10⁻⁶ M.
Regarding `COc1c(C)c(OC)c(OC)c2c1C[C@H]1CN(C(=O)OC(C)C)C[C@@H](C#N)N1[C@H]2CO` (relative stereo), the inhibition result in the test with A549 [1], in the test on MDA-MB-231 and in the test on HT-29 [2] was “inactive” each time.
Regarding `COc1c(C)c(OC)c(OC)c2c1C[C@H]1CN(C(=O)OC(C)C)CC(=O)N1[C@H]2CO`, the inhibition result in the test on A549 [1], with MDA-MB-231 and in the test on HT-29 [2] was “inactive” each time.
As to `COc1c(C)c(OC)c(OC)c2c1C[C@H]1CNCC(=O)N1[C@H]2CO` (relative stereo), the inhibition result in the test on A549 [1], with MDA-MB-231 and in the test on HT-29 [2] was “inactive” in each case.
Turning to `COc1c(C)c(OC)c(OC)c2c1C[C@H]1CN(C)C[C@H]3OC[C@@H]2N13` (relative stereo), the inhibition entry in the test with A549 [1], in the test on MDA-MB-231 and in the test on HT-29 [2] was “inactive” each time.
